Data from patent US20080261810A1, “Insecticides Based on Neonicotinoids and Safeners” (priority 2004, published 2008).
Read-outs that look alike come from different tables or passages of the source.

Legend:
[1] = test system: caterpillars of the diamond back moth (Plutella xylostella, sensitive strain); details: in vivo
Protocol: After the desired period of time, the kill in % is determined. 100% means that all caterpillars have been killed; 0% means that none of the caterpillars have been killed. The determined kill rates are entered into Colby's formula.

[2] = test system: green peach aphid (Myzus persicae); format: in vivo
Protocol: To produce a suitable preparation of active compound, 1 part by weight of active compound is mixed with the stated amounts of solvent and emulsifier, and the concentrate is diluted with emulsifier-containing water to the desired concentration.
Cabbage leaves (Brassica oleracea) which are heavily infested by the green peach aphid (Myzus persicae) are treated by being dipped into the preparation of active compound of the desired concentration.
After the desired period of time, the kill in % is determined. 100% means that all aphids have been killed; 0% means that none of the aphids have been killed. The determined kill rates are entered into Colby's formula.

| SMILES | Mortality in % after 1^d [1] | Mortality in % after 1^d ([2]; in vivo) | Mortality in % after 1^d ([2]; 0.8 ppm, active compound alone) |
| --- | --- | --- | --- |
| O=[N+]([O-])/N=C1\NCCN1Cc1ccc(Cl)nc1 [Imidacloprid, imidacloprid] | 40% | 45% |  |
| CN/C(=N\[N+](=O)[O-])NCc1cnc(Cl)s1 [Clothianidin, clothianidin] |  |  | 40% |
